Measured values published in paper PMC9599816, “Cholesterol Chip for the Study of Cholesterol–Protein Interactions Using SPR” (Biosensors, 2022).

Key:
[1] = biological target: T1, hedgehog protein, HhC (C-terminal cholesterol-binding domain) (Drosophila melanogaster, UniProt Q02936, H329A); assay: SPR, biotinylated cholesterol immobilized on streptavidin chip, […] Langmuir fit
T1 construct: gene hh; HhC autoprocessing mutant, C-terminal fusion to SUMO-HIS8

PTP1B = biological target: T2, PTP1B (Homo sapiens, UniProt P18031); assay: biochemical
T2 construct: gene PTPN1
T2 sequence (P18031 1-321): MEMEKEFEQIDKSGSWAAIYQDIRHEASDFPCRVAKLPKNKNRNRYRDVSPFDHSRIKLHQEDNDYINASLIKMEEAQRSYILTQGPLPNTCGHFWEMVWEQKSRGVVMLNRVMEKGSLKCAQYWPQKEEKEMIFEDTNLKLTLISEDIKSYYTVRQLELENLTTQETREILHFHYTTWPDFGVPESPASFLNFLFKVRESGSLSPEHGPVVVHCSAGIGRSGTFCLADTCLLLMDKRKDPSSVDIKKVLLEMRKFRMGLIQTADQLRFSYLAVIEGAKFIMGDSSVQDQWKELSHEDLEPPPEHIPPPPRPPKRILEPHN

T1 sequence (Q02936 258-471 H329A): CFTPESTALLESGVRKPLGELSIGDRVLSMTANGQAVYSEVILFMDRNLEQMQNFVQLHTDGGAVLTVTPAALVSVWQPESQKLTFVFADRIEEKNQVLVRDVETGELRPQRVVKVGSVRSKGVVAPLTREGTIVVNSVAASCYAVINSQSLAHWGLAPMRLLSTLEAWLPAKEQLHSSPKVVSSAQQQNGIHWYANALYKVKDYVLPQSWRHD

SMILES: CC(CCC[C@@H](C)[C@H]1CC[C@H]2[C@@H]3CC=C4C[C@@H](O)CC[C@]4(C)[C@H]3CC[C@]12C)c1cn(CCOCCOCCOCCNC(=O)CCCCC2SCC3NC(=O)NC32)nn1 (some centres unmarked) [biotinylated cholesterol]
- Kd [1]: ~14 nM
- Kd (PTP1B): ~85 nM
